Series [1] deals with Mycobacterium tuberculosis. Nature of the series: Antitubercular activity against Mycobacterium tuberculosis H37Rv ATCC 27294 after 28 days by agar dilution method. Type of series: functional. The conditions noted are these: H37Rv ATCC 27294, 672 h. On the technique in general: In agar dilution the substance is mixed into plates at graded concentrations.
Series [2] is described as follows: Cytotoxicity against mouse NIH/3T3 cells assessed as growth inhibition at 50 ug/ml after 48 hrs by MTT assay relative to control. Type of series: cell-based, NIH3T3. To be noted: read-out: GI. On the technique in general: Tetrazolium dyes change colour on reduction, which living cells bring about.

Values after ≈ are worked out from the molar mass of the structure shown.

Compound `COc1ccc(-c2nc3sc(C)nn3c2COCc2cn(Cc3ccccc3F)nn2)cc1` yielded a minimal inhibitory concentration (MIC) in series [1] of 25 µg/mL (≈ 53.8 µM).
On the same count and under the same terms, next, `CCOC(=O)Cn1cc(COCc2c(-c3ccc(OC)cc3)nc3sc(C)nn23)nn1`: 50 µg/mL (≈ 113 µM).
On the same count and under the same terms, next, `CCn1cc(COCc2c(-c3ccc(OC)cc3)nc3sc(C)nn23)nn1`: 25 µg/mL (≈ 65 µM).
On the same count and under the same terms, next, `COc1ccc(-c2nc3sc(C)nn3c2COCc2cn(CC#N)nn2)cc1`: 50 µg/mL (≈ 126 µM).
`COc1ccc(-c2nc3sc(C)nn3c2COCc2cn(Cc3ccc(F)cc3)nn2)cc1` returned an MIC in series [1] of 12.5 µg/mL (≈ 26.9 µM). In addition, the inhibition at 48 h, 50 ug/ml in series [2] worked out at 19.1%.
In turn, `COc1ccc(-c2nc3sc(C)nn3c2COCc2cn(Cc3ccccc3)nn2)cc1` displayed an MIC in series [1] of 3.12 µg/mL (≈ 7 µM). Besides, the inhibition at 48 h, 50 ug/ml in series [2] worked out at 22.7%.
As to `CCOC(=O)Cn1cc(COCc2c(-c3ccc(C)cc3)nc3sc(C)nn23)nn1`, 50 µg/mL (≈ 117 µM) was the least that counted as inhibitory in series [1] (MIC).
The same measure, in the same setting: in the case of `CCn1cc(COCc2c(-c3ccc(C)cc3)nc3sc(C)nn23)nn1` it was 25 µg/mL (≈ 67.8 µM); in that of `Cc1ccc(-c2nc3sc(C)nn3c2COCc2cn(CC#N)nn2)cc1`, 25 µg/mL (≈ 65.9 µM).
Still for that read-out and setting: next, `Cc1ccc(-c2nc3sc(C)nn3c2COCc2cn(Cc3ccccc3F)nn2)cc1`: 50 µg/mL (≈ 111 µM); `Cc1ccc(-c2nc3sc(C)nn3c2COCc2cn(Cc3ccc(F)cc3)nn2)cc1`: 50 µg/mL (≈ 111 µM).
Turning to `Cc1ccc(-c2nc3sc(C)nn3c2COCc2cn(Cc3ccccc3)nn2)cc1`, the MIC in series [1] amounted to 25 µg/mL (≈ 58.1 µM).
`CCOC(=O)Cn1cc(COCc2c(-c3ccc(Cl)cc3)nc3sc(C)nn23)nn1` had an MIC in series [1] of 12.5 µg/mL (≈ 28 µM). In addition, the inhibition at 48 h, 50 ug/ml in series [2] worked out at 28.2%.
In the case of `CCn1cc(COCc2c(-c3ccc(Cl)cc3)nc3sc(C)nn23)nn1`, the MIC in series [1] was 3.12 µg/mL (≈ 8.04 µM). For the same compound, the inhibition at 48 h, 50 ug/ml in series [2] came to 20.1%.
As for `Cc1nn2c(COCc3cn(C(C)C)nn3)c(-c3ccc(Cl)cc3)nc2s1`, in series [1], the minimum inhibitory concentration (MIC) stood at 50 µg/mL (≈ 124 µM).
In series [1], `Cc1nn2c(COCc3cn(CC#N)nn3)c(-c3ccc(Cl)cc3)nc2s1` gave a minimum inhibitory concentration (MIC) of 6.25 µg/mL (≈ 15.6 µM). Moreover, in series [2], the inhibition at 48 h, 50 ug/ml was 27.3%.
The compound `Cc1nn2c(COCc3cn(Cc4ccccc4F)nn3)c(-c3ccc(Cl)cc3)nc2s1` displayed a minimal inhibitory concentration (MIC) in series [1] of 50 µg/mL (≈ 107 µM).
Still for that read-out and setting: next, `Cc1nn2c(COCc3cn(Cc4ccc(F)cc4)nn3)c(-c3ccc(Cl)cc3)nc2s1`: 25 µg/mL (≈ 53.3 µM); `Cc1nn2c(COCc3cn(Cc4ccccc4)nn3)c(-c3ccc(Cl)cc3)nc2s1`: 25 µg/mL (≈ 55.4 µM).
Same read-out and setting: in the case of `Cc1nn2c(COCc3cn(CC(=O)O)nn3)c(-c3ccc(Cl)cc3)nc2s1` it was 50 µg/mL (≈ 119 µM).
On the same count and under the same terms, in the case of `CC[C@@H](CO)NCCN[C@@H](CC)CO` [ETHAMBUTOL] it was 3.12 µg/mL (≈ 15.3 µM); in that of `NNC(=O)c1ccncc1` [ISONIAZID], 0.1 µg/mL (≈ 0.729 µM); in that of `NC(=O)c1cnccn1` [PYRAZINAMIDE], 50 µg/mL (≈ 406 µM).

As usually defined, the MIC is the smallest concentration in the dilution series that meets the test's criterion for growth inhibition. Lower therefore signals a more susceptible organism.

(Values after ChEMBL document CHEMBL3616467, “One-pot synthesis of new triazole--Imidazo[2,1-b][1,3,4]thiadiazole hybrids via click chemistry and evaluation of their antitubercular activity” (Bioorg Med Chem Lett, 2015).)
